From publication PMC3325965, “Structural Basis of the Chromodomain of Cbx3 Bound to Methylated Peptides from Histone H1 and G9a” (PLoS ONE, 2012)
Square brackets hold non-standard residues; d marks the D form. Peptide text beside a SMILES is read from it. Lys(Me3) = C[N+](C)(C)CCCC[C@H](N)C(=O)O; Lys(Me2) = CN(C)CCCC[C@H](N)C(=O)O; Lys(Me) = CNCCCC[C@H](N)C(=O)O

Molecular target: T1, human Cbx3 chromodomain (Homo sapiens, UniProt Q13185)
T1 construct: The chromodomain of Cbx3 (29–86) was subcloned into a pET-28a-MHL vector; His tag (TEV-cleavable, pET-28a-MHL) (N, cleaved yes); made in house
Assay: Isothermal titration calorimetry (ITC) of methylated peptides binding to Cbx3 chromodomain
Set-up: key to Kd peptide: N/B: No binding was detected
Conditions: Cbx3 chromodomain (residues 29–86), 60 µl of peptide solution (1–2 mM) injected into cell with 40–100 mM protein, 20 mM Tris–HCl, pH 7.5, 150 mM NaCl, one-site binding model
Description: Chromodomain has been identified to be a methyl-lysine binding motif involved in transcription regulation, [28]. Many chromodomain-containing proteins, such as HP1 proteins and Polycomb group proteins, were reported to recognize methylated histone tails, [13], [17], [29]. Besides methylated histone H3K9, Cbx3, also known as HP1γ, can also bind to methylated Lys26 of histone H1 and methylated Lys185 of G9a, [22], [23]. To elucidate the binding affinity of Cbx3 chromodomain to these two methylated sites, isothermal titration calorimetry (ITC) assay was performed using histone H1K26 and G9aK185 peptides bearing different lysine methylation states as substrates. […] (Table 1).
Isothermal titration calorimetry measurements were performed as reported previously. Experiments were carried out by injecting 60 µl of peptide solution (1–2 mM) into a sample cell containing […] protein of Cbx3 chromodomain in 20 mM Tris–HCl, pH 7.5, 150 mM NaCl. The ITC measurements were fit to a one-site binding model using Origin Software (MicroCal Inc.)

T1 sequence (Q13185 29-86): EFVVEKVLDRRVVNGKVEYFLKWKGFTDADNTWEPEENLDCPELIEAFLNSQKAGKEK

Row | Compound | Kd [µM] | Kd peptide | further results
1 | CNCCCC[C@H](NC(=O)[C@H](CCCNC(=N)N)NC(=O)[C@H](C)NC(=O)[C@H](CCCNC(=N)N)NC(=O)[C@H](Cc1c[nH]cn1)NC(=O)[C@@H](NC(=O)[C@@H](N)CCCCN)C(C)C)C(=O)N[C@H](C(=O)N[C@@H](CCSC)C(=O)N[C@@H](CO)C(=O)N[C@@H](CCCCN)C(=O)N1CCC[C@H]1C(=O)O)[C@@H](C)O [G9a(179–190) me1] (H-KVHRAR[Lys(Me)]TMSKP-OH) | 28 |  | 
2 | CSCC[C@H](NC(=O)[C@@H](NC(=O)[C@H](CCCCN(C)C)NC(=O)[C@H](CCCNC(=N)N)NC(=O)[C@H](C)NC(=O)[C@H](CCCNC(=N)N)NC(=O)[C@H](Cc1c[nH]cn1)NC(=O)[C@@H](NC(=O)[C@@H](N)CCCCN)C(C)C)[C@@H](C)O)C(=O)N[C@@H](CO)C(=O)N[C@@H](CCCCN)C(=O)N1CCC[C@H]1C(=O)O [G9a(179–190) me2] (H-KVHRAR[Lys(Me2)]TMSKP-OH) | 9 |  | 
3 | CSCC[C@H](NC(=O)[C@@H](NC(=O)[C@H](CCCC[N+](C)(C)C)NC(=O)[C@H](CCCNC(=N)N)NC(=O)[C@H](C)NC(=O)[C@H](CCCNC(=N)N)NC(=O)[C@H](Cc1c[nH]cn1)NC(=O)[C@@H](NC(=O)[C@@H](N)CCCCN)C(C)C)[C@@H](C)O)C(=O)N[C@@H](CO)C(=O)N[C@@H](CCCCN)C(=O)N1CCC[C@H]1C(=O)O [G9a(179–190) me3] (H-KVHRAR[Lys(Me3)]TMSKP-OH) | 14 |  | 
4 | KVHRARK^185TMSKP [G9a(179–190) unmodified, histone methyltransferase G9a peptide, residues 179–190, without modification] |  | N/B | Kd peptide (listed as G9aK185): did not exhibit detectable binding
5 | TPVKKKARK^26SAG [H1.4(18–29) me1, histone H1.4 peptide, residues 18–29, mono-methylated at Lys26] |  | N/B | 
6 | TPVKKKARK^26SAG [H1.4(18–29) unmodified, histone H1.4 peptide, residues 18–29, without modification] |  | N/B ^* | Kd peptide (listed as H1K26): did not exhibit detectable binding
